Where two headings read alike, the source gives them in different places.
Assays:
[1] = test system: Penicillium patalum; assay: MIC (Minimum Inhibitory Concentration); assay type: cell-based; details: Penicillium patalum A 2389
[2] = test system: Candida albicans; assay: MIC (Minimum Inhibitory Concentration); assay type: cell-based
[3] = test system: Penicillium veridicatum; assay: MIC (Minimum Inhibitory Concentration); assay type: cell-based; details: Penicillium veridicatum A 2370
[4] = test system: Trichophyton soudanese joyeux; assay: MIC (Minimum Inhibitory Concentration); assay type: cell-based; details: Trichophyton soudanese joyeux 440-63; read-out: MIC values
[5] = test system: Aspergillus flavus; assay: MIC (Minimum Inhibitory Concentration); assay type: cell-based; details: Aspergillus flavus A 2385
[6] = test system: Trichophyton rubrum; assay: MIC (Minimum Inhibitory Concentration); assay type: cell-based
[7] = test system: Penicillium rubrum; assay: MIC (Minimum Inhibitory Concentration); assay type: cell-based; details: Talaromyces ruber; Penicillium rubrum A 2395
[8] = test system: Fusarium (bulb); assay: MIC (Minimum Inhibitory Concentration); assay type: cell-based; details: Fusarium (bulb) A 3252
[9] = test system: Aspergillus parasiticus; assay: MIC (Minimum Inhibitory Concentration); assay type: cell-based; details: for MIC: Aspergillus parasiticus A 2396; for MIC values: Aspergillus parasiticus A 2397
[10] = test system: Fusarium; assay: MIC (Minimum Inhibitory Concentration); assay type: cell-based; details: Fusarium A 3241
[11] = test system: Trichophyton equinum; assay: MIC (Minimum Inhibitory Concentration); assay type: cell-based
[12] = test system: Trichophyton mentagrophytus; assay: MIC (Minimum Inhibitory Concentration); assay type: cell-based
[13] = test system: Aspergillus versiodor; assay: MIC (Minimum Inhibitory Concentration); assay type: cell-based; details: Aspergillus versiodor Nr. 7
[14] = test system: Trichophyton schoenleinii; assay: MIC (Minimum Inhibitory Concentration); assay type: cell-based; details: Trichophyton schoenleinii 435-63; read-out: MIC values
[15] = test system: Fusarium solani; assay: MIC (Minimum Inhibitory Concentration); assay type: cell-based; details: Fusarium solani A 3245; read-out: MIC values
[16] = test system: Trichophyton violoceum; assay: MIC (Minimum Inhibitory Concentration); assay type: cell-based; details: Trichophyton violoceum 442-62; read-out: MIC values
[17] = test system: Trichophyton verrucosum; assay: MIC (Minimum Inhibitory Concentration); assay type: cell-based
[18] = test system: Trichophyton quickeaneum; assay: MIC (Minimum Inhibitory Concentration); assay type: cell-based; details: Trichophyton quickeaneum A 2040; read-out: MIC values
[19] = test system: Penicillium islandicum; assay: MIC (Minimum Inhibitory Concentration); assay type: cell-based; details: Talaromyces islandicus; Penicillium islandicum D 189
[20] = test system: Rhizoctonia solani; assay: MIC (Minimum Inhibitory Concentration); assay type: cell-based; details: Rhizoctonia solani 200-25; read-out: MIC values
[21] = test system: Penicillium italicum; assay: MIC (Minimum Inhibitory Concentration); assay type: cell-based; details: Penicillium italicum 278-65
[22] = test system: Trichophyton tonsurans; assay: MIC (Minimum Inhibitory Concentration); assay type: cell-based; details: Trichophyton tonsurans 561-50; read-out: MIC values
[23] = test system: Fusarium (tulip); assay: MIC (Minimum Inhibitory Concentration); assay type: cell-based; details: Fusarium (tulip) A 3253
[24] = storage stability; assay type: physicochemical
Description: Those compounds in which Rx or Ry is a hydrogen atom should be stored generally at lower temperatures, e.g. in a refrigerator. The 1-isocyano-l-p-toluenesulphonylethene (Rx and Ry hydrogen atoms) appears to be very unstable. Notwithstanding this the compound, in the reaction medium in which it must be present, could be converted with a primary amine into the corresponding imidazole, which in turn, may be converted into its ^picrate. This proves that 1-isocyano-i-p-toluenesulphonylethene exists.

[25] = test system: Proteus morganii; assay: MIC (Minimum Inhibitory Concentration); assay type: cell-based; details: Morganella morganii; Proteus morganii 2241
[26] = test system: Bacillus subtilis; assay: MIC (Minimum Inhibitory Concentration); assay type: cell-based; details: ATCC6633; Bacillus subtilis ATCC 6633
[27] = test system: Staphylococcus aureus; assay: MIC (Minimum Inhibitory Concentration); assay type: cell-based
[28] = test system: Pasteurella multocida; assay: MIC (Minimum Inhibitory Concentration); assay type: cell-based; details: Pasteurella multocida A 723; read-out: MIC values
[29] = test system: Diplococcus pneumoniae; assay: MIC (Minimum Inhibitory Concentration); assay type: cell-based; details: Streptococcus pneumoniae; Diplococcus pneumoniae A 2783
[30] = Candida albicans A 7, read-out: MIC values
[31] = Candida albicans A 3140, read-out: MIC values
[32] = Candida albicans A 3141, read-out: MIC values
[33] = Candida albicans A 3144, read-out: MIC values
[34] = Candida albicans A 3145, read-out: MIC values
[35] = Candida albicans A 3165, read-out: MIC values
[36] = Candida albicans A 3167, read-out: MIC values
[37] = Candida albicans A 3168, read-out: MIC values
[38] = Candida albicans A 3169, read-out: MIC values
[39] = Candida albicans A 3171, read-out: MIC values
[40] = Candida albicans A 3191, read-out: MIC values
[41] = Candida albicans A 3194, read-out: MIC values
[42] = Candida albicans A 3196, read-out: MIC values
[43] = Trichophyton rubrum 218-65, read-out: MIC values
[44] = Trichophyton rubrum 494-62, read-out: MIC values
[45] = Trichophyton rubrum A 810, read-out: MIC values
[46] = Trichophyton equinum 182-76, read-out: MIC values
[47] = Trichophyton equinum 856-71, read-out: MIC values
[48] = Trichophyton mentagrophytus 367-68, read-out: MIC values
[49] = Trichophyton mentagrophytus 421-67, read-out: MIC values
[50] = Trichophyton mentagrophytus A 3252, read-out: MIC values
[51] = Trichophyton mentagrophytus R 177, read-out: MIC values
[52] = Trichophyton mentagrophytus R 178, read-out: MIC values
[53] = Trichophyton mentagrophytus RRL 305, read-out: MIC values
[54] = Trichophyton verrucosum 134-66, read-out: MIC values
[55] = Trichophyton verrucosum A 2922, read-out: MIC values

C[C@@H]1C/C=C/C=C/C=C/C=C/[C@H](O[C@@H]2O[C@H](C)[C@@H](O)[C@H](N)[C@@H]2O)C[C@@H]2O[C@](O)(C[C@@H](O)C[C@H]3O[C@@H]3/C=C/C(=O)O1)C[C@H](O)[C@H]2C(=O)O [natamycin, reference compound]
2.5 µg/mL: MIC [9] | MIC values [9]
1.5 µg/mL: MIC [2, 36] | MIC [2, 38] | MIC [3]
50 µg/mL: MIC [5] | MIC [12, 51] | MIC [12, 52] | MIC [16]
12.5 µg/mL: MIC [2, 30] | MIC [2, 37] | MIC [6, 43] | MIC [6, 45] | MIC [12, 48] | MIC [12, 49] | MIC [12, 53] | MIC [18] | MIC [22]
2.3 µg/mL: MIC [20]
6 µg/mL: MIC ([2]; Candida albicans A 3166, read-out: MIC values) | MIC [2, 39] | MIC [2, 40] | MIC [2, 42] | MIC [8] | MIC [11, 47] | MIC [13] | MIC [23]
25 µg/mL: MIC [2, 31] | MIC [2, 35] | MIC [4] | MIC [6, 44] | MIC [11, 46] | MIC [14] | MIC [17, 54] | MIC [17, 55]
9.3 µg/mL: MIC [15]
100 µg/mL: MIC [12, 50]
3 µg/mL: MIC [1] | MIC [2, 32] | MIC [2, 33] | MIC [2, 34] | MIC [2, 41] | MIC [7] | MIC [10] | MIC [19] | MIC [21]

[C-]#[N+]C(=C)S(=O)(=O)c1ccc(C)cc1 [Example 8, 1-isocyano-1-(4-toluenesulphonyl)-ethene]
very unstable: stability [24]

[C-]#[N+]C(=C(C)c1ccco1)S(=O)(=O)c1ccc(C)cc1 [Example 13, 1-isocyano-2-(2-furanyl)-1-(4-toluenesulphonyl)-1-propene]
0.75 µg/mL: MIC [28]
25 µg/mL: MIC [1] | MIC [7]
3 µg/mL: MIC [3] | MIC [12, 48] | MIC [12, 49] | MIC [12, 50] | MIC [12, 51] | MIC [12, 53] | MIC [14] | MIC [16] | MIC [17, 55] | MIC [21] | MIC [22]
> 100 µg/mL: MIC [13]
12.5 µg/mL: MIC [25] | MIC [5] | MIC ([27]; Staphylococcus aureus A 321) | MIC [12, 52] | MIC [29] | MIC [19]
6 µg/mL: MIC [4] | MIC ([27]; Staphylococcus aureus A 355) | MIC ([27]; Staphylococcus aureus A 2000) | MIC [9] | MIC values [9] | MIC [20]
0.1 µg/mL: MIC [2, 30] | MIC [11, 47]
50 µg/mL: MIC [10]
1.5 µg/mL: MIC [2, 35] | MIC [26] | MIC [11, 46]
< 0.05 µg/mL: MIC [2, 32] | MIC [2, 34] | MIC [2, 39] | MIC ([2]; Candida albicans A 3190, read-out: MIC values) | MIC [2, 40] | MIC [2, 41] | MIC [2, 42]
0.2 µg/mL: MIC [2, 31] | MIC [2, 33] | MIC [2, 37] | MIC [2, 38]
0.8 µg/mL: MIC [6, 43] | MIC [6, 44] | MIC [6, 45] | MIC [17, 54]
0.4 µg/mL: MIC [2, 36] | MIC [18]

Reference: patent publication EP0007672A1, “Isocyanoalkenes, process and useful intermediates for their preparation, pharmaceutical and fungicidal preparations containing those isocyanoalkenes and the use of the fungicidal preparations in agriculture” (GIST-BROCADES N.V., priority 1978, dated 1980)
